Values of other authors as cited in patent publication CN117800914A, “一种抗SARS-CoV-2病毒奥密克戎突变种抑制剂” (Second Military Medical University SMMU, priority 2023, dated 2024).

System: COVID-19
Details: early use, cited from earlier work

SMILES | reduction of risk of hospitalization/death (in words) (mild to moderate patients at risk of progression) | reduction of risk of severe COVID-19
CC(C)C(=O)OC[C@H]1O[C@@H](n2ccc(NO)nc2=O)[C@H](O)[C@@H]1O [莫那匹韦] | 可降低住院/死亡风险 | –
CCC(CC)COC(=O)[C@H](C)N[P@](=O)(OC[C@H]1O[C@@](C#N)(c2ccc3c(N)ncnn23)[C@H](O)[C@@H]1O)Oc1ccccc1 [瑞德西韦] | – | 87%
